# Data published in patent publication US8273717B2, “Inhibitor for perioperative blood sugar elevation” (Otsuka Pharmaceutical Factory, Inc., priority 2003, dated 2012).
# Tests used:
# Type in all cases: in vivo, rat
# blood sugar level [1] = assay: Test Example 6: effect of branched amino acids in blood sugar elevation model by glucose (blood sugar level); conditions: Pentobarbital anesthesia; for time at which blood sugar level reached the maximum (peak): after the start of test, 5 weight % glucose-1.8% amino acid i.v.
# Description: A blood sugar elevation model was made by intravenous administration of glucose to the living body, and the effect was examined with parallel administration of leucine, isoleucine and valine in the above-mentioned model.
# (§1) Rats were pre-treated in a similar manner to Test Example 4, and anesthesia in the rats was maintained for 3 hours by intravenous continuous administration of Pentobarbital in a similar manner to Test Example 4. […] Blood was collected (100 μL) through the catheter for administration of aqueous amino acid solution before the start of administration, 30 minutes, 90 minutes, and 180 minutes after the start of administration respectively. And then, the blood sugar level and serum insulin value were determined according to Test Example 1.
# serum insulin value = assay: Test Example 6: serum insulin value with glucose+leucine
# Description: The serum insulin value was determined by ELISA Method (manufactured by Mevcodia Co.).
# as §1
# blood sugar level [2] = assay: Test Example 7: blood sugar decrease by oral administration of leucine, anesthesia vs non-anesthesia; conditions: 0.3 g/10 mL/kg leucine suspension orally
# Description: Non-anesthesia group: rats under overnight fasting conditions were divided into groups by body weight, and blood was collected from a tail vein (Pre Value). Shortly after that, 10 mL/kg of distilled water was orally administered to control group, and 0.3 g/10 mL/kg of leucine suspension to a sample solution group. Blood was collected from the tail vein 90 minutes after the administration of distilled water and the sample solution (90 minutes value).
# Anesthesia group: rats under overnight fasting conditions were divided into groups by body weight, and blood was collected from a tail vein (Pre Value). After the blood collection, 10 mL/kg of distilled water was orally administered to a control group, and 0.3 g/10 mL/kg of leucine suspension to a sample solution group. Saflow indwelling needle was kept in the tail vein 30 minutes after the sample solution was administered. After that, anesthesia was introduced by rapid intravenous administration of 30 mg/kg Pentobarbital Sodium. Thereafter, a gastight syringe disposed in micro syringe pump and an indwelling needle were connected through an extension tube, and anesthesia was maintained by continuous intravenous administration of 30 mg/kg/hr. Blood was collected from the tail vein opposite to that wherein the indwelling needle was kept 60 minutes after introduction of anesthesia (90 minutes value).
# In addition, blood was collected in a tube for hematocrit determination. After collected blood was centrifuged, plasma fraction was recovered and the blood sugar level was determined according to Test Example 1.
# The changed value of the blood sugar level was calculated by deducting Pre value of each rat plasma from 90 minutes value of each rat plasma.
# blood sugar level [3] = assay: Test Example 8: inhibition of blood sugar elevation by oral isoleucine during sugar tolerance, non-anesthesia vs anesthesia; conditions: 0.5 g/10 mL/kg isoleucine orally, 3 g glucose/kg orally 30 minutes later
# Description: Non-anesthesia group: rats under overnight fasting conditions were divided into groups by body weight, blood was collected from a tail vein (Pre Value). To a control group and a sample solution group was orally administered 0.5 g/10 mL/kg of OTSUKA distilled water (water for injection; manufactured by OTSUKA PHAMACEUTICAL FACTORY, INC.) and 0.5 g/10 mL/kg of aqueous isoleucine solution, respectively. 50% OTSUKA sugar solution (glucose injection (glucose 100 g/200 mL); manufactured by OTSUKA PHAMACEUTICAL FACTORY, INC.; hereinafter also simply called glucose solution) was administered orally so as to be 3 g glucose/kg 30 minutes after the administration of the sample solution. Blood was collected from the tail vein 30 minutes, 60 minutes, 90 minutes, and 120 minutes after the start of sugar solution administration, and the blood sugar level was determined. Each blood sugar level was considered as 30 minutes value, 60 minutes value, 90 minutes value, and 120 minutes value, respectively in the non-anesthesia group.
# Anesthesia group: rats under overnight fasting conditions were divided into groups by body weight, blood was collected from a tail vein (Pre Value). […] The blood sugar level of the blood collected from the tail vein 30 minutes, 60 minutes, 90 minutes, and 120 minutes after the administration of sugar solution was determined. […]
compound,measurement,setting,value
CC(C)C[C@H](N)C(=O)O [leucine],blood sugar level compared with glucose administration group,blood sugar level [1]; 90 and 180 minutes after the start of the test,lower significantly
same,time at which blood sugar level reached the maximum (peak),blood sugar level [1],30 min
same,increase of serum insulin value under anesthesia relative to non-anesthesia,serum insulin value; 30 minutes,1.7 times
same,increase of serum insulin value under anesthesia relative to non-anesthesia,serum insulin value; 90 minutes,9.9 times
same,increase of serum insulin value under anesthesia relative to non-anesthesia,serum insulin value; 180 minutes,16.2 times
same,decrease extent of blood sugar level in the anesthesia group compared to non-anesthesia group,blood sugar level [2],2.7 times
same,changed value of the blood sugar level (90 minutes value minus Pre value),blood sugar level [2]; anesthesia group (Pentobarbital Sodium),decrease in blood sugar level was recognized
same,changed value of the blood sugar level (90 minutes value minus Pre value),blood sugar level [2]; non-anesthesia group,decrease in blood sugar level was recognized
CC[C@H](C)[C@H](N)C(=O)O [isoleucine],time at which blood sugar level reached the maximum (peak),blood sugar level [1],30 min
same,"area under the blood sugar level curve (AUC, 0-120 min) compared to control group",blood sugar level [3]; anesthesia group (Somnopentyl i.p.),significant decrease
same,"area under the blood sugar level curve (AUC, 0-120 min) compared to control group",blood sugar level [3]; non-anesthesia group,decreased compared to that of the control group
